Data from the supplement of paper PMC10307832.

Experiments:
Assay in all cases: relative viability (nuclei count vs DMSO), 5 days (fraction); higher = more cells survive
Midostaurin + Linsitinib = compound: CO[C@@H]1[C@H](N(C)C(=O)c2ccccc2)C[C@H]2O[C@]1(C)n1c3ccccc3c3c4c(c5c6ccccc6n2c5c31)C(=O)NC4 [Midostaurin] + C[C@]1(O)C[C@@H](c2nc(-c3ccc4ccc(-c5ccccc5)nc4c3)c3c(N)nccn32)C1 [Linsitinib] (partner 1 µM)
Outline: (§1)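 Medians of duplicate plates are given as relative viability. That measure is the nuclei count in treated wells divided by the count in vehicle wells. Counts were taken on 4× images of lung cancer cell lines in 1536-well plates, 5 days after pin-tool dosing the day after seeding with one drug alone or a fixed anchor-drug dose plus five library-drug doses (not always all listed) in √10 steps.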

[1] = compound: COc1cc(-c2nn([C@H]3CC[C@H](N4CCN(C(C)=O)CC4)CC3)c3ncnc(N)c23)ccc1NC(=O)c1cc2ccccc2n1C + COc1cccc2cc(-c3nc([C@H]4CC[C@H](C(=O)O)CC4)n4ncnc(N)c34)[nH]c12 [OSI-027] (partner 0.5 µM)
Outline: as §1

[2] = compound: COc1cc(-c2nn([C@H]3CC[C@H](N4CCN(C(C)=O)CC4)CC3)c3ncnc(N)c23)ccc1NC(=O)c1cc2ccccc2n1C + C[C@@H](Oc1cc(-c2cnn(C3CCNCC3)c2)cnc1N)c1c(Cl)ccc(F)c1Cl [Crizotinib] (partner 1 µM)
Outline: as §1

[3] = compound: COc1cc(-c2nn([C@H]3CC[C@H](N4CCN(C(C)=O)CC4)CC3)c3ncnc(N)c23)ccc1NC(=O)c1cc2ccccc2n1C + Nc1nc2[nH]cc(CCc3ccc(C(=O)N[C@@H](CCC(=O)O)C(=O)O)cc3)c2c(=O)[nH]1 [Pemetrexed] (partner 0.2 µM)
Outline: as §1

[4] = compound: COc1cc(-c2nn([C@H]3CC[C@H](N4CCN(C(C)=O)CC4)CC3)c3ncnc(N)c23)ccc1NC(=O)c1cc2ccccc2n1C + O=C(c1cc(Cc2n[nH]c(=O)c3ccccc23)ccc1F)N1CCN(C(=O)C2CC2)CC1 [Olaparib] (partner 8 µM)
Outline: as §1

| Cell Line | relative viability (Midostaurin + Linsitinib; first compound 0.01 µM) | relative viability (Midostaurin + Linsitinib; first compound 0.03162 µM) | relative viability (Midostaurin + Linsitinib; first compound 0.1 µM) | relative viability (Midostaurin + Linsitinib; first compound 0.3162 µM) | relative viability ([1]; first compound 0.0128 µM) | relative viability ([1]; first compound 0.04048 µM) | relative viability ([1]; first compound 0.128 µM) | relative viability ([1]; first compound 1.28 µM) | relative viability ([2]; first compound 0.0128 µM) | relative viability ([2]; first compound 0.04048 µM) | relative viability ([2]; first compound 0.128 µM) | relative viability ([2]; first compound 1.28 µM) | relative viability ([3]; first compound 0.0128 µM) | relative viability ([3]; first compound 0.04048 µM) | relative viability ([3]; first compound 0.128 µM) | relative viability ([3]; first compound 1.28 µM) | relative viability ([4]; first compound 0.0128 µM) | relative viability ([4]; first compound 0.04048 µM) | relative viability ([4]; first compound 0.128 µM) | relative viability ([4]; first compound 1.28 µM) |
| --- | --- | --- | --- | --- | --- | --- | --- | --- | --- | --- | --- | --- | --- | --- | --- | --- | --- | --- | --- | --- |
| NCI-H2126 | 0.742 | 0.673 | 0.748 | 0.792 | 0.686 | 0.661 | 0.646 | 0.547 | 1.16 | 1.08 | 1.04 | 0.749 | 0.621 | 0.656 | 0.669 | 0.618 | 0.952 | 0.961 | 0.656 | 0.74 |
| EMC-BAC-2 | 0.84 | 0.777 | 0.669 | 0.765 | 0.347 | 0.531 | 0.385 | 0.352 | 0.759 | 0.848 | 0.731 | 0.532 | 0.445 | 0.557 | 0.426 | 0.493 | 0.52 | 0.645 | 0.473 | 0.5 |
| NCI-H1993 | 0.782 | 0.712 | 0.655 | 0.669 | 0.52 | 0.575 | 0.552 | 0.431 | 0.925 | 0.902 | 0.803 | 0.645 | 0.684 | 0.543 | 0.598 | 0.599 | 0.997 | 1.11 | 0.885 | 0.891 |
| NCI-H520 | 0.924 | 0.991 | 0.968 | 0.787 | 0.191 | 0.252 | 0.201 | 0.174 | 0.763 | 0.621 | 0.628 | 0.549 | 0.637 | 0.732 | 0.603 | 0.409 | 0.388 | 0.398 | 0.286 | 0.265 |
| NCI-H647 | 1.09 | 1.37 | 1.1 | 0.738 | 0.594 | 0.656 | 0.617 | 0.435 | 1.03 | 0.858 | 0.886 | 0.541 | 0.19 | 0.154 | 0.172 | 0.164 | 0.646 | 0.567 | 0.514 | 0.373 |
| NCI-H1792 | 0.577 | 0.556 | 0.499 | 0.526 | 0.736 | 0.523 | 0.689 | 0.558 | 0.958 | 1.01 | 0.88 | 0.896 | 0.883 | 0.913 | 0.797 | 0.729 | 0.481 | 0.532 | 0.416 | 0.416 |
| SK-LU-1 | 1.11 | 0.961 | 1.06 | 0.664 | 0.4 | 0.291 | 0.284 | 0.206 | 1 | 0.975 | 0.658 | 0.506 | 1.06 | 1.03 | 0.936 | 0.686 | 0.411 | 0.6 | 0.431 | 0.402 |
| NCI-H2009 | 1.2 | 1.05 | 1.06 | 1.19 | 0.618 | 0.463 | 0.635 | 0.54 | 1.09 | 0.94 | 1.04 | 0.906 | 1.03 | 1.09 | 1.21 | 1.19 | 0.706 | 0.714 | 0.674 | 0.69 |
| LOU-NH91 | 1.05 | 0.885 | 0.958 | 0.953 | 0.729 | 0.803 | 0.731 | 0.745 | 0.745 | 0.811 | 0.753 | 0.638 | 0.395 | 0.348 | 0.363 | 0.433 | 0.924 | 1.01 | 0.902 | 0.831 |
| NCI-H2405 | 0.965 | 1.01 | – | 0.853 | 0.679 | 0.465 | 0.633 | 0.324 | 0.827 | – | 0.733 | 0.442 | 1.02 | 0.698 | 0.991 | 0.426 | 0.908 | 0.719 | 0.756 | 0.453 |
| LCLC-97TM1 | 0.193 | – | 0.145 | 0.184 | 0.596 | 0.243 | 0.489 | 0.586 | 0.364 | 0.409 | 0.359 | 0.519 | 0.182 | 0.185 | 0.171 | 0.19 | 0.455 | 0.501 | 0.326 | 0.441 |
| NCI-H596 | 1.09 | 1.17 | 1.08 | 1.15 | 0.681 | 0.526 | 0.641 | 0.441 | 0.943 | 1.2 | 1.01 | 0.64 | 0.494 | 0.536 | 0.517 | 0.431 | 0.722 | 0.787 | 0.681 | 0.593 |
| H3255 | 0.948 | 0.875 | 0.953 | 1 | 0.564 | 0.476 | 0.573 | 0.552 | 0.938 | 0.981 | 0.81 | 0.468 | 0.628 | 0.567 | 0.578 | 0.489 | 0.616 | 0.579 | 0.558 | 0.491 |
| SK-MES-1 | 1.05 | 0.954 | 1.06 | 1.07 | 0.685 | 0.665 | 0.583 | 0.562 | 1.02 | 1.04 | 0.869 | 0.971 | 1.08 | 0.994 | 0.904 | 0.755 | 0.79 | 0.873 | 0.672 | 0.587 |
| NCI-H1437 | 1.2 | 0.992 | 1.12 | 1.05 | 0.796 | 0.992 | 0.861 | 0.838 | 1.06 | 0.877 | 0.922 | 0.846 | 0.351 | 0.339 | 0.287 | 0.303 | 0.689 | 0.636 | 0.628 | 0.595 |
| LU99A | 0.5 | 0.503 | 0.408 | 0.407 | 0.307 | 0.323 | 0.329 | 0.312 | 0.629 | 0.522 | 0.545 | 0.696 | 0.162 | 0.225 | 0.169 | 0.252 | 0.284 | 0.29 | 0.286 | 0.263 |
| HCC-827 | 0.928 | 0.883 | 0.852 | 1.06 | 0.817 | 0.658 | 0.666 | 0.744 | 0.903 | 0.963 | 0.94 | 0.685 | 0.253 | 0.251 | 0.211 | 0.238 | 0.657 | 0.572 | 0.574 | 0.48 |
| LK-2 | 0.462 | 0.62 | 0.559 | 0.816 | 0.267 | 0.187 | 0.198 | 0.184 | 0.215 | 0.259 | 0.187 | 0.199 | 0.298 | 0.248 | 0.27 | 0.133 | 0.779 | 0.674 | 0.6 | 0.385 |
| HCC-366 | 0.624 | 0.754 | 0.457 | 0.381 | 0.803 | 0.347 | 0.882 | 0.772 | 0.692 | 0.679 | 0.546 | 0.281 | 0.141 | 0.24 | 0.208 | 0.232 | 0.394 | 0.328 | 0.361 | 0.252 |
| BEN | 0.926 | 0.905 | 1.02 | 0.978 | 0.27 | 0.296 | 0.311 | 0.291 | 0.8 | 0.996 | 0.756 | 0.576 | 0.686 | 0.814 | 0.871 | 0.664 | 1.1 | 1.05 | 1.02 | 0.848 |
| NCI-H23 | 0.53 | 0.698 | 0.362 | 0.508 | 0.646 | 0.368 | 0.578 | 0.415 | 0.534 | 0.533 | 0.458 | 0.376 | 0.66 | 0.459 | 0.688 | 0.618 | 0.323 | 0.321 | 0.339 | 0.292 |
| 201T | 1.05 | 1 | 1.07 | 1.04 | 0.646 | 0.765 | 0.746 | 0.339 | 1.02 | 1.05 | 0.941 | 0.815 | 0.394 | 0.288 | 0.316 | 0.309 | 0.899 | 0.896 | 0.767 | 0.623 |
| NCI-H460 | 0.739 | 0.732 | 0.75 | 0.694 | 0.609 | 0.584 | 0.623 | 0.395 | 0.854 | 1.01 | 0.966 | 0.682 | 0.0604 | 0.0561 | 0.0601 | 0.0597 | 0.48 | 0.47 | 0.312 | 0.386 |
| NCI-H661 | 0.56 | 0.638 | 0.532 | 0.439 | 0.721 | 0.722 | 0.691 | 0.575 | 1.09 | 1.03 | 1.07 | 1.1 | 0.939 | 0.991 | 0.93 | 0.968 | 0.817 | 0.843 | 0.724 | 0.763 |
| HCC-15 | 0.886 | 0.898 | 0.904 | 0.818 | 0.832 | 0.463 | 0.616 | 0.586 | 0.89 | 0.772 | 0.808 | 0.67 | 0.227 | 0.228 | 0.198 | 0.225 | 0.745 | 0.77 | 0.719 | 0.651 |
| LCLC-103H | 1.12 | 1.16 | 1.16 | 1.14 | 0.47 | 0.469 | 0.493 | 0.417 | 1.17 | 1.22 | 0.993 | 1.07 | 0.54 | 0.428 | 0.47 | 0.471 | 0.851 | 0.79 | 0.615 | 0.773 |
| NCI-H441 | 0.569 | 0.56 | 0.432 | 0.435 | 0.637 | 0.531 | 0.763 | 0.702 | 0.841 | 0.621 | 0.655 | 0.705 | 0.275 | 0.306 | 0.254 | 0.295 | 0.554 | 0.51 | 0.622 | 0.624 |
| EPLC-272H | 1.08 | 1.11 | 1.17 | 1.22 | 0.27 | – | 0.293 | 0.264 | 0.974 | 0.924 | 0.984 | 0.701 | 0.406 | 0.338 | 0.287 | 0.253 | 0.666 | 1.01 | 0.729 | 0.589 |
